Experimental data as given in the NIST ThermoML archive (doi:10.1021/je900648p).

Key:
[1] = 101.33 kPa, Liquid, Hot wire method
[2] = molar heat capacity at constant pressure; conditions: 101.33 kPa, Liquid, Small sample (50 mg) DSC

CCCCCCn1cc[n+](C)c1.F[B-](F)(F)F [1-hexyl-3-methylimidazolium tetrafluoroborate]
[1]
Conditions	thermal conductivity [W/m/K]
293 K	0.158
303 K	0.157
313 K	0.156
323 K	0.155
333 K	0.153
343 K	0.152
353 K	0.151

CCCC[N+]1(C)CCCC1.O=S(=O)([N-]S(=O)(=O)C(F)(F)F)C(F)(F)F
[1]
Conditions	thermal conductivity [W/m/K]
293 K	0.118
303 K	0.118
313 K	0.118
323 K	0.117
333 K	0.117

CCCCn1cc[n+](C)c1.F[B-](F)(F)F [1-butyl-3-methylimidazolium tetrafluoroborate]
[2]
Conditions	molar heat capacity at constant pressure [J/K/mol]
308.16 K	367.26
313.16 K	367.64
318.16 K	370.39
323.16 K	371.89
328.22 K	373.73
333.22 K	375.92
338.19 K	377.15
343.18 K	380.16
348.25 K	382.69
353.18 K	384.8
358.25 K	386.99
363.18 K	389.18
368.17 K	390
373.21 K	390.04
378.2 K	392.18
383.17 K	393.64
388.2 K	395.28
393.17 K	396.49
398.2 K	397.93
403.2 K	400.74
408.16 K	403.88
413.19 K	403.49
418.19 K	404.98
423.22 K	406.62

CCCCn1cc[n+](C)c1.F[P-](F)(F)(F)(F)F [1-butyl-3-methylimidazolium hexafluorophosphate]
Conditions	molar heat capacity at constant pressure [J/K/mol]	thermal conductivity [W/m/K]
[1], 293 K	–	0.145
[1], 303 K	–	0.145
[1], 313 K	–	0.145
[1], 323 K	–	0.144
[1], 333 K	–	0.143
[1], 343 K	–	0.143
[1], 353 K	–	0.143
[2], 308.16 K	410.64	–
[2], 313.16 K	413.48	–
[2], 318.16 K	417.74	–
[2], 323.16 K	422.01	–
[2], 328.22 K	423.43	–
[2], 333.22 K	426.27	–
[2], 338.19 K	429.11	–
[2], 343.18 K	433.37	–
[2], 348.25 K	436.22	–
[2], 353.18 K	439.06	–
[2], 358.25 K	441.9	–
[2], 363.18 K	443.32	–
[2], 368.17 K	444.74	–
[2], 373.21 K	447.58	–
[2], 378.2 K	450.43	–
[2], 383.17 K	454.69	–
[2], 388.2 K	457.53	–
[2], 393.17 K	460.37	–
[2], 398.2 K	463.21	–
[2], 403.2 K	468.9	–
[2], 408.16 K	470.32	–
[2], 413.19 K	471.74	–
[2], 418.19 K	473.16	–
[2], 423.22 K	474.58	–
